Measured values reported in patent US12428415B2, “Matriptase 2 inhibitors and uses thereof” (Disc Medicine, Inc., priority 2018, dated 2025).
Like-named read-outs stand apart in the source and are kept apart here.

Molecular target: T1, Human Recombinant Matriptase 2 (Homo sapiens, UniProt Q8IU80)
T1 construct: purchased Enzo Life Sciences (an in-house preparation was also used) ALX-201-752-1
T1 sequence (Q8IU80 1-811): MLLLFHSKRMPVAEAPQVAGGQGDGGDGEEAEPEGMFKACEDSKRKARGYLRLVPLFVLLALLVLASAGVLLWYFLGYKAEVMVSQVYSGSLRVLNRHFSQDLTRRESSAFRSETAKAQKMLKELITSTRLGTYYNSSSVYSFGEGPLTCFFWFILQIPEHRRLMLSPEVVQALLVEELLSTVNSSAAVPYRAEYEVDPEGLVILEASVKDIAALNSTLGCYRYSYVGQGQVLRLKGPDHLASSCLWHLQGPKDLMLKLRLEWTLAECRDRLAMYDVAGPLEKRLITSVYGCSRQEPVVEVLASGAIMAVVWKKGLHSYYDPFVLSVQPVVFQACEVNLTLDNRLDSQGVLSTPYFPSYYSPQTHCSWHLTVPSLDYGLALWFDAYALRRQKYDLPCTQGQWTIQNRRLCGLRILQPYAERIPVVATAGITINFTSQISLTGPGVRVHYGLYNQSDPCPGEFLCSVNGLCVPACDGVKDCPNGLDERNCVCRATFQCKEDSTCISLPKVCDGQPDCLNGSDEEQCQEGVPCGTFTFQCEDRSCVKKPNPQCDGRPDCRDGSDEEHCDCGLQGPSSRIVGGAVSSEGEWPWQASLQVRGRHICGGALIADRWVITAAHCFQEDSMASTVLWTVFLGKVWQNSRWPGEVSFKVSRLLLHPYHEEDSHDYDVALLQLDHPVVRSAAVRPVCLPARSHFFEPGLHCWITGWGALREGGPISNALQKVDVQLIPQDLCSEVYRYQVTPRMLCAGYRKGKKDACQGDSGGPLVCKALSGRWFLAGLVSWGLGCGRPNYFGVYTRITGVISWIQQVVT
Test: Matriptase 2 fluorescence based inhibition assay, Method B (50 mM TRIS pH 7.5, 150 mM NaCl, 0.01% gelatin)
Format: biochemical
Details: for inhibition at 1 µM: read-out: Mar-2 % inhibition at 1 uM
Procedure, shortened: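 Fluorogenic substrate Boc-Gln-Ala-Arg-7-amido-4-methylcoumarin (100 μM) cleavage read at Ex 360/Em 480 nm 60 min after addition, following 30 min enzyme–compound preincubation at 25° C. Enzyme was 7 nM commercial or 15 nM in-house; DMSO 1%. IC50s fitted by non-linear sigmoidal regression.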

[1] = 1 uM compound, Assay Used = B (Method B)
[2] = compound at 1 uM, Assay Used: B

Row | SMILES | inhibition at 1 µM (1 uM compound, Assay Used = B) | inhibition at 1 µM [1] | other results
1 | N#Cc1c(C(=O)N[C@H]2CC[C@H](N)CC2)n(Cc2cccc3ccccc23)c2cc(C(=N)N)ccc12 [Compound I-657] | – | – | Mar-2 % inhibition at 1 uM [1]: A (A represents 0%≤I≤25%)
2 | N=C(N)c1ccc2cc(C(=O)N[C@H]3CC[C@H](O)CC3)n(Cc3cccc4ccccc34)c2c1 [Compound I-440] | 75 to 100% | – | –
3 | NCc1ccc2cc(C(=O)N[C@H]3CC[C@H](N)CC3)n(Cc3cc(S(=O)(=O)c4ccccc4)cc4ccccc34)c2c1 [Compound I-636] | – | 25 to 50% | –
4 | COC(=O)NCCOC(=O)c1cc2ccc(C(=N)N)cc2n1Cc1cc(Oc2ncccn2)cc2ccccc12 [Compound I-583] | 75 to 100% | – | –
5 | N=C(N)c1ccc2cc(C(=O)O)n(Cc3cc(Oc4ccncc4)cc4ccccc34)c2c1 [Compound I-632] | – | 50 to 75% | –
6 | N=C(N)c1ccc2cc(C(=O)N[C@H]3CC[C@H](N)CC3)n(Cc3cc(Oc4ccccc4F)cc4ccccc34)c2c1 [Compound I-615] | – | 75 to 100% | –
7 | CN1CCC(NC(=O)c2cc3ccc(C(=N)NC(=O)Oc4ccccc4)cc3n2Cc2cccc3ccccc23)CC1 [Compound I-782] | – | – | inhibition at 1 µM: 50 to 75%
8 | NC(=O)c1ccc2cc(C(=O)N[C@@H]3CCNC3)n(Cc3cccc4ccccc34)c2c1 [Compound I-456] | 0 to 25% | – | –
9 | N=C(N)c1ccc2cc(C(=O)O)n(Cc3c[nH]c4ccccc34)c2n1 [Compound I-667] | – | 25 to 50% | –
10 | COC(=O)c1cc2ccc(C(=N)N)cc2n1Cc1cccc2ccccc12 [Compound I-486, Methyl 6-carbamimidoyl-1-(naphthalen-1-ylmethyl)-1H-indole-2-carboxylate] | 25 to 50% | – | –
11 | CC(C)(C)OC(=O)N[C@H]1CC[C@H](NC(=O)c2cc3ccc(C(=N)N)cc3n2-c2ccc3ccccc3c2)CC1 [Compound I-416] | 0 to 25% | – | –
12 | N/C(=N/O)c1ccc2cc(C(=O)O)n(Cc3cc(Oc4ncccn4)cc4ccccc34)c2c1 [Compound I-643, (Z)-6-(N′-hydroxycarbamimidoyl)-1-((3-(pyrimidin-2-yloxy)naphthalen-1-yl)methyl)-1H-indole-2-carboxylic Acid] | – | 0 to 25% | –
13 | CN1CCC(CNC(=O)c2cc3ccc(C(=N)N)cc3n2Cc2cccc3ccccc23)CC1 [Compound I-460, 6-carbamimidoyl-N-((1-methylpiperidin-4-yl)methyl)-1-(naphthalen-1-ylmethyl)-1H-indole-2-carboxamide] | 75 to 100% | – | –
14 | N=C(N)c1ccc2cc(C(=O)O)n(Cc3cc(OS(=O)(=O)c4ccccc4)cc4ccccc34)c2c1 [Compound I-621] | – | 75 to 100% | –
15 | N=C(N)c1ccc2cc(C(=O)OCc3ccccc3)n(Cc3cc(Oc4ncccn4)cc4ccccc34)c2c1 [Compound I-596] | 25 to 50% | – | –
16 | N=C(N)c1ccc2c(C(=O)N[C@H]3CC[C@H](N)CC3)cn(Cc3cccc4ccccc34)c2c1 [Compound I-519, N-((1r,4r)-4-aminocyclohexyl)-6-carbamimidoyl-1-(naphthalen-1-ylmethyl)-1H-indole-3-carboxamide] | 0 to 25% | – | –
17 | COC(=O)NCCNC(=O)c1cc2ccc(C(=N)N)cc2n1Cc1cc(Oc2ncccn2)cc2ccccc12 [Compound I-564] | 75 to 100% | – | –
18 | N=C(N)c1ccc2cc(C(=O)N[C@H]3CC[C@H](N)CC3)n(Cc3cncc4ccccc34)c2c1 [Compound I-507] | 50 to 75% | – | –
19 | N=C(N)c1ccc2cc(C(=O)Nc3ccc4ncccc4c3)n(Cc3cccc4ccccc34)c2c1 [Compound I-771] | – | 25 to 50% | –
20 | N=C(N)c1ccc2cc(C(=O)OC3CCCCC3)n(Cc3cccc4ccccc34)c2c1 [Compound I-811] | – | – | inhibition at 1 µM [2]: 25 to 50%
21 | CCCCCCOC(=O)NC(=N)c1ccc2cc(C(=O)O)n(Cc3cccc4ccccc34)c2c1 [Compound I-720, Potassium 6-(N-((hexyloxy)carbonyl)carbamimidoyl)-1-(naphthalen-1-ylmethyl)-1H-indole-2-carboxylate] | – | 0 to 25% | –
22 | N=C(N)c1ccc2cc(C(=O)N[C@H]3CC[C@H](N)CC3)n(Cc3cc(OCCc4ccccc4)cc4ccccc34)c2c1 [Compound I-737] | – | 75 to 100% | –
23 | N=C(N)c1ccc2c(C=O)c(C(=O)N[C@H]3CC[C@H](N)CC3)n(Cc3cccc4ccccc34)c2c1 [Compound I-515, N-((1r,4r)-4-aminocyclohexyl)-6-carbamimidoyl-3-formyl-1-(naphthalen-1-ylmethyl)-1H-indole-2-carboxamide] | 25 to 50% | – | –
24 | NCc1ccc2cc(C(=O)NC3CCCC(N)C3)n(Cc3cccc4ccccc34)c2c1 (centres unmarked) [Compound I-540] | 25 to 50% | – | –

Row | SMILES | inhibition at 1 µM (1 uM compound, Assay Used = B) | inhibition at 1 µM [1] | other results
25 | CCOC(=O)c1cc2ccc(C(=N)N)cc2n1Cc1cc(Oc2ncccn2)cc2ccccc12 [Compound I-598, Ethyl 6-carbamimidoyl-1-((3-(pyrimidin-2-yloxy)naphthalen-1-yl)methyl)-1H-indole-2-carboxylate] | – | 75 to 100% | –
26 | CNCCCOc1ccc2c(Cn3c(C(=O)O)cc4ccc(C(=N)N)cc43)cccc2c1 [Compound I-801, 6-carbamimidoyl-1-((6-(3-(methylamino)propoxy)naphthalen-1-yl)methyl)-1H-indole-2-carboxylic Acid] | – | – | inhibition at 1 µM [2]: 50 to 75%
27 | N=C(N)c1ccc2cc(C(=O)N[C@H]3CC[C@H](N)CC3)n(Cc3cc(O)cc4ccccc34)c2c1 [Compound I-694] | – | 75 to 100% | –
28 | COC(=O)c1cc2c(Cn3c(C(=O)N[C@H]4CC[C@H](N)CC4)cc4ccc(C(=N)N)cc43)cccc2s1 [Compound I-822] | – | – | inhibition at 1 µM [2]: 50 to 75%
29 | COc1ccnc(Oc2cc(Cn3c(C(=O)O)cc4ccc(C(=N)N)cc43)c3ccccc3c2)n1 [Compound I-574] | 25 to 50% | – | –
30 | CCOC(=O)c1cc2ccc(C(N)=NO)cc2n1Cc1cc(Oc2ccccc2)cc2ccccc12 [Compound I-663] | – | 0 to 25% | –
31 | N=C(N)c1ccc2cc(C(=O)NCCN)n(Cc3cccc4ccccc34)c2c1 [Compound I-465] | 75 to 100% | – | –
32 | Cc1ccnc(Oc2cc(Cn3c(C(=O)O)cc4ccc(C(=N)N)cc43)c3ccccc3c2)n1 [Compound I-566] | 25 to 50% | – | –
33 | N=C(N)c1ccc2cc(C(=O)NCC3(C(N)=O)CCCCC3)n(Cc3cccc4ccccc34)c2c1 [Compound I-464] | 50 to 75% | – | –
34 | N=C(N)c1ccc2cc(C(=O)O)n(Cc3cc(S(=O)(=O)c4ccccc4)cc4ccccc34)c2c1 [Compound I-678] | – | 50 to 75% | –
35 | COC(=O)NCCOC(=O)c1cc2ccc(C(=N)NC(=O)OCC(C)C)cc2n1Cc1cc(Oc2ncccn2)cc2ccccc12 [Compound I-550] | 0 to 25% | – | –
36 | CO/N=C(\N)c1ccc2cc(C(=O)OC)n(Cc3cccc4ccccc34)c2n1 [Compound I-697, Methyl (Z)-6-(N′-methoxycarbamimidoyl)-1-(naphthalen-1-ylmethyl)-1H-pyrrolo[2,3-b]pyridine-2-carboxylate] | – | 0 to 25% | –
37 | CC(C)COC(=O)NC(=N)c1ccc2cc(C(=O)O)n(Cc3cc(Oc4ccccc4)cc4ccccc34)c2c1 [Compound I-622] | – | 0 to 25% | –
38 | CC(C)COC(=O)NC(=N)c1ccc2cc(C(=O)O)n(Cc3cccc4ccccc34)c2n1 [Compound I-674] | – | 25 to 50% | –
39 | N=C(N)c1ccc2cc(C(=O)N[C@H]3CC[C@H](N)CC3)n(Cc3cccc(Cl)c3Cl)c2c1 [Compound I-498] | 25 to 50% | – | –
40 | N=C(N)c1ccc2cc(-c3nnn[nH]3)n(Cc3cccc4ccccc34)c2c1 [Compound I-803, 1-(naphthalen-1-ylmethyl)-2-(1H-tetrazol-5-yl)-1H-indole-6-carboximidamide] | – | – | inhibition at 1 µM [2]: 75 to 100%
41 | Cn1c(C(=O)O)c(Cc2cccc3ccccc23)c2cc(/C(N)=N/O)ccc21 [Compound I-641] | – | 0 to 25% | –
42 | CN(C)C(=O)c1cc2ccc(C(=N)N)cc2n1Cc1cccc2ccccc12 [Compound I-624] | – | 25 to 50% | –
43 | CN(C)[C@H]1CC[C@H](NC(=O)c2cc3ccc(C(=N)N)cc3n2Cc2cccc3ccccc23)CC1 [Compound I-469] | 75 to 100% | – | –
44 | CC(=O)N[C@H]1CC[C@H](NC(=O)c2cc3ccc(C(=N)N)cc3n2Cc2cccc3ccccc23)CC1 [Compound I-754] | – | 50 to 75% | –
45 | N=C(N)c1ccc2cc(C(=O)Nc3ccncc3)n(Cc3cccc4ccccc34)c2c1 [Compound I-763] | – | 50 to 75% | –
46 | N=C(N)c1ccc2cc(C(=O)O)n(Cc3cc(OC(F)F)cc4ccccc34)c2c1 [Compound I-648] | – | 50 to 75% | –
47 | N=C(N)c1ccc2cc(C(=O)O)n(Cc3ccc(Oc4ccccc4)c4ccccc34)c2c1 [Compound I-705] | – | 50 to 75% | –
